Consider two compounds from US20030134832A1, “Novel tibolone formulations” (priority 2001, published 2003).

Structures are written as SMILES.

Consider `O=C([O-])CC(O)(CC(=O)[O-])C(=O)[O-].[Na+].[Na+].[Na+]` [Sodium Citrate, sodium citrate], for which the “pH of 1% w/v aqueous solution” value is given as “pH 8.75”.
The result for `O=C([O-])O.[Na+]` [Sodium Bicarbonate, sodium bicarbonate] reads “pH 8.2”.
